Laboratory results taken from patent US10676436B2, “NLRX1 ligands” (Landos Biopharma, Inc., priority 2018, dated 2020).

Test system: CD4+ T cells
Test: Immunological screening in vitro in CD4+ splenocytes, flow cytometry
Type: cell-based, C57BL/6 mice
Description: Spleens were excised from C57BL/6 mice. Spleens were crushed between the frosted ends of microscope slides and filtered to provide a cellular suspension. Red blood cells were lysed through hypotonic lysis. Remaining cells were washed and filtered. CD4+ T cells were enriched within the suspension using magnetic sorting based negative selection. Cells were collected and plated within 96 well plates coated with anti-CD3 and cultured in the presence of NX-13, NX-37, NX-43, NX-44, or NX-50 at 0, 0.1, 1 or 10 micromolar; NX-53, NX-54, NX-55, or NX-56 at 0, 0.1, or 1 micromolar; or NX-45 at 10, 50 or 100 nanomolar for 48 h. During the last 6 h of culture, cells were stimulated with phorbol 12-myristate-13-acetate (PMA) and ionomycin.
Cells were collected from 96 well plates and stained with a cocktail of antibodies for immunophenotyping by flow cytometry. Culture supernatant was collected and assayed for cytokine concentrations by cytometric bead array. Data was captured on a BD FACS Celesta and analyzed using FacsDiva.

[1] = wild-type cells, 48 h, PMA and ionomycin

Cc1cccc(Oc2cc(Oc3cccc(C)n3)cc(Oc3cccc(C)n3)c2)n1 [NX-13, 1,3,5-tris (6-methylpyridin-2-yloxy) benzene]
function at NLRX1 concluded from the cytokine results: activators of NLRX1 | effects on IFNγ and TNFα producing CD4+ T cells in the absence of NLRX1 (NLRX1 deficient cells): these effects were lost | proportion of IFNγ producing (IFNγ+) CD4+ T cells [1]: reduced | proportion of TNFα producing (TNFα+) CD4+ T cells [1]: reduced
